Assay results: US7871978B2, “Bone tropic peptides” (University of Virginia Patent Foundation, priority 2004, dated 2011)

Columns and labels:
prostate cancer cells = experiment: Chimeric tumors of killer-gene mesenchymal cells and prostate cancer cells treated with prodrug; format: in vivo, immune deficient rats
Procedure: Further experiments were carried out exploiting the phenomenon of mesenchymal cell homing to skeletal tissues. Cells transduced with thymidine kinase or cytidine deaminase, killer genes that can be expressed under the influence of a prodrug, lead to a cell kill effect on neighboring prostate cancer cells in a co-culture system in vitro. In vivo, the mesenchymal cells and prostate cancer cells were co-injected into subcutaneous sites in immune deficient rats. […] Therefore, a cell-based gene delivery system may be useful to pursue as potential therapy for metastatic cancer, particularly prostate cancer cells that have spread to bone.

[1] = tested on: bone and marrow tissue sections (mouse femur, rib); experiment: Biotinylated peptide binding to bone/marrow tissue sections, Avidin-FITC fluorescence; conditions: biotinylated peptides; 1/50,000 dilution of Avidin-FITC
Procedure: Methods: Four-week old Swiss Webster mice were euthanized; the femurs were excised and decalcified in 0.25M EDTA in PBS solution for 5 days, and washed in PBS for 24 hours. The femoral shafts were obtained by cutting off the proximal and distal ends of the femur. The femoral shafts were placed in Tissue-Tek O.C.T. Compound (Sukura Finetek, Torrance, Calif.) and frozen at −20° C. overnight. Sections were cut at 10 μm serially with a cryomicrotome, rinsed with 1% BSA in PBS three times. To block non-specific reaction sections were incubated with Avidin/Biotin Blocking Kit (Vector Laboratories, Inc. Burlingame, Calif.) according to the manufacturer's instructions. Following another rinse with PBS, 150 μl 10 mM solution of each biotinylated peptide (L1, L2, L7, R1, R8) was added to the slides and incubated for 1 hour at room temperature. In negative controls, only PBS was added. After rewashes with 1% BSA, 150 μl of 1:50,000 dilution of Avidin-FITC was added to each slide and incubated overnight at 4° C.
The sections were washed with 1% BSA in PBS and mounted with Vectashield (Vector Laboratories Inc., Burlingame, Calif.). Fluorescence was visualized using a Nikon eclipse E600 microscope (Nikon, Melville, N.Y.) equipped with a 535 nm wavelength fluorescein filter. Images were obtained using a Sony DKC-5000 digital camera (Sony Electronics Inc.) and processed with Adobe Photoshop software (Adobe Systems Incorporated, San Jose, Calif.).
(§1) For localization of peptide binding to cells and tissue sections, biotinylated peptides were synthesized. Fluorescein-isothiocyanate (FITC) labeled Avidin was used to localize the peptides on cells in culture and in tissue sections in vitro by epiluminescence microscopy. In addition, the biotinylated peptides were detected at concentrations as low as 1 μM in slot blots.
Cryosections of decalcified femurs harvested from 4 week BALB/c mice were incubated with biotinylated peptide and Avidin-FITC. […] The distribution of fluorescence throughout the marrow was uneven. […] In control slides incubated with PBS without peptide, none of the cells could be detected by fluorescence (not shown). […]

[2] = tested on: prostate cancer cells (CaP); experiment: Prostate cancer (CaP) cell adhesion to BMEC, cell line not distinguished; format: cell-based; conditions: 50 μM and 100 μM tested
Procedure: (§2) FIG. 8 is a graphic representation of the effects of various peptides on altering cellular adhesion to BMEC cells in vitro. LNCaP cells were compared directly to C4-2 cells for the ability of specific phage-derived peptides to alter cellular adhesion to BMEC cells in vitro. Adhesion was measured at […]. C=control (no peptide). The ordinate represents percent of acid precipitable counts bound and the abscissa indicated the cells treated and the peptides used.
(§3) The phage-derived bone-targeting peptides isolated by biopanning were tested for their ability to alter the adhesion of prostate cancer cells to a human bone marrow endothelial cell line (see FIG. 8). In this assay, LNCaP cells were compared directly to the more metastatic, bone colonizing derivative, C4-2.
This observation will be examined further and exploited by the aims of this proposal to identify the binding partners of nucleolin in prostate cancer cells as well as to investigate bone tropic peptides as potential inhibitors of prostate cancer metastasis.

[3] = tested on: bovine aortic endothelial cells; experiment: Effect of peptides on adherent bovine aortic endothelial cells on fibronectin or collagen; format: cell-based; conditions: for Effect on adherent BAEC (Experiment 1): 0.1M biotinylated peptide, 1 hour, cells adhered four hours on fibronectin or collagen
Procedure: Peptides from the phage display project were added to bovine aortic endothelial cells in culture. The endothelial cells had adhered to a surface coated with collagen or with fibronectin.
Experiment 1: Bovine aortic endothelial cells were plated on glass slides that were coated either fibronectin or collagen. The cell density was 5,000 cells/well. After the cells adhered for four hours, 0.1M of biotinylated peptide was added to each well. The following peptides were used: L1, L2, L5, L6, L7, L12, L13, L14, L19, R1, R3, and R8.
To perform this experiment, the media was removed and the cells were rinsed with 1×PBS plus 1% BSA three times. Peptides were diluted in 1×PBS plus 1% BSA, added to cells and incubated for 1 hour. The cells were rinsed three times with 1% BSA in PBS, and fixed with 2% parafomaldehyde. Aldehyde groups were blocked with 0.2 M HCl-glycine in PBS, the cells were rinsed three times with 1% BSA in PBS and ExtrAvidin-FITC (1:200 dilution) was added and incubated overnight at 4° C. The cells were rinsed three times with 1% BSA in PBS. The chambers and the gasket were removed from each slide, Vectashield was added, covered and viewed on a Nikon microscope. Images were acquired using a Coolsnap digital camera and Metavue software. […]
Experiment 3: The cells were adherent for about 6 hours and peptides at various concentrations were added to the cells. The concentrations of each of the peptides used in this experiment were: 0.1M, 0.01M, 0.001M and 0.0001M biotinylated peptide. The following peptides were tested: L1, L5, L6, L7, L13, L14, R1, R3, R8, DIP1 and PBS control (SEQ ID NOs:1, 3, 4, 5, 8, 9, 11, 13, 14, and 29).

C4-2 cells = experiment: Prostate cancer cell adhesion to BMEC: C4-2; format: cell-based; conditions: FIG. 8; preliminary results
Procedure: as §2, §3

bone and bone marrow = experiment: In vivo biopanning with 12-mer peptide phage display library; set-up: species or system BALB/c mice; conditions: for PERCENT FREQUENCY: phage eluted from bone and bone marrow; for PHAGE SEQUENCE FREQUENCY (number of times the sequence was found in a group of plaques): phage eluted from bone and bone marrow after repeated rounds
Description: The Ph.D.-12 Phage Display Peptide Library Kit (New England Biolabs, Beverly, Mass.) used in this study is based on a combinatorial library of random peptide 12-mers fused to a minor coat protein (pIII). […] The peptide is followed by a short spacer of four amino acid residues, the first three residues of which are glycine and the fourth of which is serine, and then the wild-type III sequence. The library consists of approximately 2.7×10^9 electroporated sequences, amplified once to yield approximately 55 copies of each sequence.
For in vivo biopanning, BALB/c mice 8 weeks of age were injected 3.4×10^10 pfu of phage into the heart. The animals were euthanized after 5 minutes, and the tissues (bone, bone marrow, kidney, liver, and spleen) were collected for analysis. The bound phage was eluted according the manufacturer's instructions. The eluted phage was titered, amplified, purified, and injected again at the same concentration.
The frequency of each peptide in bone and bone marrow was compared with its location in other tissues such as liver, kidney, lung, spleen, and brain. Thirteen unique peptide sequences eluted from bone and marrow were identified were identified by sequencing phage DNA. The peptides were synthesized using the polystyrene solid support on a Protein Technologies Symphony Multiple Channel Synthesizer.

LNCaP cells = experiment: Prostate cancer cell adhesion to BMEC: LNCaP; format: cell-based; conditions: FIG. 8; preliminary results
Procedure: as §2, §3

[4] = tested on: Unicortical femoral defects; experiment: Peptide-mediated osteogenesis in cortical bone defects (Example 8); format: in vivo, Fisher 344 rats; conditions: 100 mM peptide in gelfoam, two weeks postoperatively; for Effectiveness at stimulating osteogenesis and cortical bone repair: versus gelfoam+PBS
Procedure: In an in vivo study, all 13 peptides at a concentration of 100 mM were tested for their ability to potentiate osteogenesis. A gelfoam cylinder 1.5 mm in diameter 2 mm in length was used as carrier for the peptides. Unicortical femoral defects 1.5 mm in diameter were created bilaterally in Fisher 344 rats; the left femoral defect was filled with gelfoam+PBS (Control), and the right femur with gelfoam+peptide. The samples were harvested and examined two weeks postoperatively. To examine the effect of peptide concentration on cortical bone regeneration, peptide L7 (SEQ ID NO:5) was used at 1, 5, and 20 mM. […] The time course of cortical bone repair with 20 mM L7 was examined at 5, 10, 15, and 20 days.

[5] = tested on: Membrane and cytosol fractions from human bone marrow endothelial cells; experiment: Affinity chromatography of HBME fractions on immobilized peptide; format: binding; set-up: key to Identification of binding partners by affinity chromatography: HBME: ✓: Check marks indicate positive binding observed with FITC; −: a dash indicates a negative result; conditions: cell lysates
Procedure: (§4) Membrane and cytosol fractions from human bone marrow endothelial cells and bovine aortic endothelial cells were prepared and used to identify the components from within these fractions that bind to the peptides using affinity chromatography). […] Cell surface nucleolin is present at higher concentrations in actively dividing cells and is down regulated in cells when they become quiescent. Nucleolin is the apparent cell surface receptor of E-coli intimin-gamma. Cell bound intimin has been proposed to trigger a host cell response similar to the extension of filipodia when cells bind to laminin. […] Table 3 provides a summary of peptide-binding partners (putative receptors) identified by affinity chromatography of cell lysates.
Peptide Affinity Column Chromatography: Peptides identified from the phage display experiments in mouse bone and bone marrow were synthesized with an additional three-residue glycine linker and an N-terminal lysine residue. The lysine residue was used to specifically link the peptides to a support. Cell membranes from BMECs were solubilized with triton X-100. The solubilized proteins were passed through the peptide affinity column (total volume, 500 μL) followed by extensive washes with buffer. Retained proteins were eluted either with 100 mM solution of the same peptide as that immobilized on the column or with a wash of 0.1 N HCl-Glycine, pH 2.2. The eluates were analyzed by SDS PAGE and proteins observed in the gels were identified by LC/MS/MS.

[6] = tested on: bovine aortic endothelial cells (BAEC); experiment: Peptide binding to BAEC in culture (Avidin-FITC); set-up: key: ✓: Check marks indicate positive binding observed with FITC; −: a dash indicates a negative result
Procedure: as §1
(§5) Bone marrow cells isolated from mouse femur were lifted with ethylenediaminetetraacetic acid (EDTA) and trypsin, resuspended, and allowed to attach on fibronectin-coated chamber slides for Avidin-FITC staining. […] The D1 cell is a multipotential mesenchymal stem-like line that was isolated from bone marrow and shown to have the characteristics of osteoprogenitor cells. This cell line has been well established and used successfully in several in vitro and in vivo studies in our laboratory. Peptide binding to human bone marrow endothelial cells (HBME) and bovine aortic endothelial cells (BAEC) in culture was also tested using the same procedure.

[7] = tested on: Bone marrow cells isolated from mouse femur; experiment: Peptide binding to bone marrow cells in culture (Avidin-FITC); set-up: key to Localization of peptide binding: Marrow (cells in culture): ✓: Check marks indicate positive binding observed with FITC; −: a dash indicates a negative result; conditions: FITC
Procedure: as §1, §5

[8] = tested on: Membrane and cytosol fractions from bovine aortic endothelial cells; experiment: Affinity chromatography of BAEC fractions on immobilized peptide; format: binding
Procedure: as §4

Binding to rib and long bone growth plate sections [1] | Compound | Size of chimeric tumors (prostate cancer cells; mesenchymal cells and prostate cancer cells co-injected subcutaneously, prodrug treatment) | Serum PSA levels (prostate cancer cells; treated rats) | Concentrations at which peptide inhibits prostate cancer cell adhesion to BMEC [2] | Effect on adherent BAEC (Experiment 1) [3] | Effect on adhesion of C4-2 cells to BMEC (C4-2 cells) | PERCENT FREQUENCY (bone and bone marrow) [%] | PHAGE SEQUENCE FREQUENCY (number of times the sequence was found in a group of plaques) (bone and bone marrow) | Effect on adhesion of LNCaP cells to BMEC (LNCaP cells) | Effectiveness at stimulating osteogenesis and cortical bone repair [4] | Histological appearance of repair tissue in the defect [4] | Identification of binding partners by affinity chromatography: HBME [5] | Localization of peptide binding: BAEC [6] | Localization of peptide binding: Marrow (cells in culture) [7] | Effect on adherent BAEC (Experiment 3) ([3]; 0.1M peptide, cells adherent about 6 hours) | Binding partner from BAEC lysates ([8]; biotinylated peptide immobilized on avidin-agarose) | Identification of binding partners by affinity chromatography: BAEC ([8]; cell lysates)
 | Nc1nc2c(ncn2COC(CO)CO)c(=O)[nH]1 [gencyclovir] | diminished in size | drop in serum PSA levels |  |  |  |  |  |  |  |  |  |  |  |  |  | 
no staining | ALA-THR-TRP-SER-HIS-HIS-LEU-SER-SER-ALA-GLY-LEU-GLY-GLY-GLY-SER (ATWSHHLSSAGLGGGS; listed as Homo sapiens) [Peptide R3] |  |  | at 100 μM only | the cells had lifted completely and most of the cells disappeared from the surface of the slides, leaving a lot of cell debris | dose-dependent inhibition of CaP cell invasion for both cell lines | 34.5 | 10/29 | dose-dependent inhibition of CaP cell invasion for both cell lines | most effective at stimulating osteogenesis and cortical bone repair |  |  |  |  |  |  | 
 | ASP-SER-SER-ASN-PRO-ILE-PHE-TRP-ARG-PRO-SER-SER-GLY-GLY-GLY-SER (DSSNPIFWRPSSGGGS; listed as Homo sapiens) [Peptide L19] |  |  |  | no effect, with results similar to PBS | leaving the adhesion of the C4-2 cell line unaffected | 16.7 | 5/30 | strongly inhibited the less aggressive LNCaP cell | virtually no stimulatory effect on osteogenesis | while some ossification and cortical bone regeneration has occurred, considerable amounts of gelfoam remains in the defect |  |  |  |  |  | 
 | GLN-ARG-SER-TRP-THR-LEU-ASP-SER-ALA-LEU-SER-MET-GLY-GLY-GLY-SER (QRSWTLDSALSMGGGS; listed as Homo sapiens) [Peptide L12] |  |  |  | the cells lifted and formed clusters that stained intensely |  | 16.7 | 5/30 |  | most effective at stimulating osteogenesis and cortical bone repair |  | − | ✓ | ✓ | formed fewer clumps and considerably more debris | vimentin was found to bind | ✓Vimentin
